The target of the experiment is T1, Leukotriene A-4 hydrolase (Homo sapiens, UniProt P09960).
T1 sequence (P09960 whole entry): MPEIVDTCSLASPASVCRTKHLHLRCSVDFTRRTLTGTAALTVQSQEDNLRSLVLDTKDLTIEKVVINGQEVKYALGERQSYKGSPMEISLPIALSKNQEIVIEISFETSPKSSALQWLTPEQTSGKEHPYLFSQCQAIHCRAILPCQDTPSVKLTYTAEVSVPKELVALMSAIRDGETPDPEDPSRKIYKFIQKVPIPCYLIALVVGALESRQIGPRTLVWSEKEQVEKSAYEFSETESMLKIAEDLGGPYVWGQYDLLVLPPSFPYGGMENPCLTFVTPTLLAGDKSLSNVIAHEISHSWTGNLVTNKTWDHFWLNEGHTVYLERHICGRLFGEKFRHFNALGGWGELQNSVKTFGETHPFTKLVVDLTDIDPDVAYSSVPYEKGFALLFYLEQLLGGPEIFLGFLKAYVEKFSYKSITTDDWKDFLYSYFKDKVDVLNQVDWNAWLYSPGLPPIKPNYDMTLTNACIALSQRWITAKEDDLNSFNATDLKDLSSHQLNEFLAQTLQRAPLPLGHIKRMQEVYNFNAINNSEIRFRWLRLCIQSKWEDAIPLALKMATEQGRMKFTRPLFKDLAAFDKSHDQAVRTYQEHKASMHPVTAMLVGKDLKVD
As to the kind of experiment: Inhibition of recombinant human LTA4H Epoxide Hydrolase expressed in Escherichia coli BL21 (DE3) pLysS preincubated for 10 mins followed by addition of LTA4 as substrate measured after 15 mins by reverse-phase HPLC analysis.

IC50 data for 1 compound are collected here from BindingDB's records for doi:10.1021/acs.jmedchem.6b01507 (East China University of Science and Technology, 2017).

Where only a bound is given, the exact number is not on record here.

For the compound `CN(C)Cc1cccc(S(=O)(=O)n2ccc(/C=C/C(=O)NO)c2)c1`, the 50% inhibitory concentration (IC50) is > 10 µM.

The IC50 is the concentration needed to halve the response being measured.
